Structures can show the parent of a compound that is named as a salt.
The compounds below were run on C. albicans (assay: Broth microdilution assay of synergistic lethality with 4 μg/mL FLC (recovery on drug-free YPD)). Settings: concentration of the compound that is synergistically lethal with 4 μg/mL FLC; C. albicans; recovery on drug-free YPD.
Type: cell-based, Candida albicans

Compound	Synergistic lethal concentrations [µM]
O=C(O)/C=C/C(=O)O.OCCOCCN1CCN(C2=Nc3ccccc3Sc3ccccc32)CC1.OCCOCCN1CCN(C2=Nc3ccccc3Sc3ccccc32)CC1 [Quetiapine (hemifumarate)]	100
CCCCCCOC(=O)NC(=N)c1ccc(NCc2nc3cc(C(=O)N(CCC(=O)OCC)c4ccccn4)ccc3n2C)cc1.CS(=O)(=O)O [Dabigatran etexilate (mesylate)]	50
Cc1cc(Nc2ncc(Cl)c(Nc3ccccc3S(=O)(=O)C(C)C)n2)c(OC(C)C)cc1C1CCNCC1.Cl.Cl [Ceritinib dihydrochloride]	12.5
OCc1cc(C(O)CNCCCCCCOCCCCc2ccccc2)ccc1O (centres unmarked) [Salmeterol]	100
C[C@@H](OC[C@@]1(c2ccccc2)CC[C@]2(CCC(=O)N2)CN1)c1cc(C(F)(F)F)cc(C(F)(F)F)c1 [Rolapitant]	12.5
OCCOCCN1CCN(C2=Nc3ccccc3Sc3ccccc32)CC1 [Quetiapine]	100
CCCCC(CC)COC(=O)CC(C(=O)OCC(CC)CCCC)S(=O)(=O)[O-].[Na+] (centres unmarked) [Docusate (Sodium)]	100
COc1ccccc1OCCNCC(O)COc1cccc2[nH]c3ccccc3c12 (centres unmarked) [Carvedilol]	100
COC(=O)c1ccc2c(c1)NC(=O)/C2=C(\Nc1ccc(N(C)C(=O)CN2CCN(C)CC2)cc1)c1ccccc1 [Nintedanib]	100
CC(C)c1nc(N(C)S(C)(=O)=O)nc(-c2ccc(F)cc2)c1/C=C/[C@@H](O)C[C@@H](O)CC(=O)[O-].CC(C)c1nc(N(C)S(C)(=O)=O)nc(-c2ccc(F)cc2)c1/C=C/[C@@H](O)C[C@@H](O)CC(=O)[O-].[Ca+2] [Rosuvastatin (Calcium)]	50
CSc1ccc2c(c1)N(CCC1CCCCN1C)c1ccccc1S2.Cl (centres unmarked) [Thioridazine (hydrochloride)]	100
O=C(O)c1cc2ccccc2c(Cc2c(O)c(C(=O)O)cc3ccccc23)c1O.OCCOCCN1CCN(C(c2ccccc2)c2ccc(Cl)cc2)CC1 [Hydroxyzine (pamoate)]	100
O=C([O-])C[C@H](O)C[C@H](O)/C=C/c1c(C2CC2)nc2ccccc2c1-c1ccc(F)cc1.O=C([O-])C[C@H](O)C[C@H](O)/C=C/c1c(C2CC2)nc2ccccc2c1-c1ccc(F)cc1.[Ca+2] [Pitavastatin (Calcium)]	1.5625
CNCCCN1c2ccccc2CCc2ccccc21 [Desipramine hydrochloride]	100
C[C@@H](NCCCc1cccc(C(F)(F)F)c1)c1cccc2ccccc12.Cl [Cinacalcet (hydrochloride)]	100
CCCOc1ccc(S(=O)(=O)N2CCN(CCO)CC2)cc1-c1nc2c(CCC)cn(CC)c2c(=O)[nH]1.Cl.Cl [Mirodenafil (dihydrochloride)]	100
CC1=C(C)C(=O)C(CCCCCCCCCC[P+](c2ccccc2)(c2ccccc2)c2ccccc2)=CC1=O.[Br-] [Visomitin]	50
Cl.Cl.Fc1ccc(C(c2ccc(F)cc2)N2CCN(C/C=C/c3ccccc3)CC2)cc1 [Flunarizine (dihydrochloride)]	50
Br.Cc1ccc(Sc2ccccc2N2CCNCC2)c(C)c1 [Vortioxetine (hydrobromide)]	100

Compound	Synergistic lethal concentrations [µM]
CC(C)(C)C(O)/C=C/c1ccc2c(c1)OCO2 (centres unmarked) [Stiripentol]	100
O=C(O)CCC(=O)O.O=C(O[C@H]1CN2CCC1CC2)N1CCc2ccccc2[C@@H]1c1ccccc1 [Solifenacin (Succinate)]	100
C=CC(=O)Nc1cc(Nc2nccc(-c3cn(C)c4ccccc34)n2)c(OC)cc1N(C)CCN(C)C [Osimertinib]	100
Cc1onc(-c2ccccc2)c1-c1ccc(S(N)(=O)=O)cc1 [Valdecoxib]	100
O=C1NCCN1CCN1CCC(c2cn(-c3ccc(F)cc3)c3ccc(Cl)cc23)CC1 [Sertindole]	25
CCOC(=O)c1cncn1[C@H](C)c1ccccc1.Cl [Etomidate (hydrochloride)]	100
CN1C[C@H](CNC(=O)OCc2ccccc2)C[C@@H]2c3cccc4c3c(cn4C)C[C@H]21 [Metergoline]	100
Cc1cnc(Nc2ccc(OCCN3CCCC3)cc2)nc1Nc1cccc(S(=O)(=O)NC(C)(C)C)c1 [Fedratinib]	100
Cc1nc2c([nH]1)-c1ccccc1N(C(=O)c1ccc(NC(=O)c3ccccc3-c3ccccc3)cc1)CC2.Cl [Conivaptan (hydrochloride)]	100
O=c1[nH]c2ccccc2n1CCCN1CCC(n2c(=O)[nH]c3cc(Cl)ccc32)CC1 [Domperidone]	100
CCOC(=O)C1=C(COCCN)NC(C)=C(C(=O)OC)C1c1ccccc1Cl (centres unmarked) [Amlodipine]	100
COC(=O)N[C@H](C(=O)N1CC2(CC2)C[C@H]1c1nc(-c2ccc3c(c2)C(F)(F)c2cc(-c4ccc5[nH]c([C@@H]6[C@H]7CC[C@H](C7)N6C(=O)[C@@H](NC(=O)OC)C(C)C)nc5c4)ccc2-3)c[nH]1)C(C)C [Ledipasvir]	100
CCCCc1oc2ccc(NS(C)(=O)=O)cc2c1C(=O)c1ccc(OCCCN(CCCC)CCCC)cc1 [Dronedarone]	100
CN(C)C/C=C/C(=O)Nc1cc2c(Nc3ccc(F)c(Cl)c3)ncnc2cc1O[C@H]1CCOC1 [Afatinib]	100
CCCCCCCCN=c1ccn(CCCCCCCCCCn2ccc(=NCCCCCCCC)cc2)cc1.Cl.Cl [Octenidine (dihydrochloride)]	1.5625
CC(C)(CO)c1cc2cc(NC(=O)C3(c4ccc5c(c4)OC(F)(F)O5)CC3)c(F)cc2n1C[C@@H](O)CO [Tezacaftor]	100
COc1ccc2c(c1)c(CC(=O)O)c(C)n2C(=O)c1ccc(Cl)cc1 [Indomethacin]	100
CN1CCN(c2ccc(C(=O)Nc3n[nH]c4ccc(Cc5cc(F)cc(F)c5)cc34)c(NC3CCOCC3)c2)CC1 [Entrectinib]	50

These compounds were tested on C. albicans (assay: Dose–matrix titration assays (synergy, with YPD recovery plates)). Settings: combined with PIT; Figure 5B.
Type: cell-based, Candida albicans
Method: The synergistic effects of drugs were conducted following the same procedure as the MIC assays. Specifically, 50 μL of drug A was distributed through two-fold serial dilution across seven plate columns. Subsequently, 50 μL of drug B was distributed in a two-fold serial dilution manner along seven rows of the plate. Furthermore, 100 μL of C. albicans cultures, adjusted to a density of 1 × 10^3 cells/mL, was dispensed into wells containing drugs and one control well devoid of any drugs. Before the 48 h OD600 readings, the plates were subjected to meticulous agitation to ensure the deposition of a representative 2 μL aliquot from each well onto newly prepared YPD recovery plates, thereby facilitating the evaluation of cellular recuperation following drug treatments. The recovery plates were subsequently incubated at a temperature of 30 °C for a duration ranging from 24 to 48 h, after which they were photographed. The experimental procedures were conducted in triplicate to ensure reliability and reproducibility.

Compound	effect of azole combined with PIT
C[C@@H](c1ncncc1F)[C@](O)(Cn1cncn1)c1ccc(F)cc1F [voriconazole]	synergistic lethal effects
CCC(C)n1ncn(-c2ccc(N3CCN(c4ccc(OCC5COC(Cn6cncn6)(c6ccc(Cl)cc6Cl)O5)cc4)CC3)cc2)c1=O (centres unmarked) [itraconazole]	synergistic lethal effects
CC(=O)N1CCN(c2ccc(OCC3COC(Cn4ccnc4)(c4ccc(Cl)cc4Cl)O3)cc2)CC1 (centres unmarked) [ketoconazole]	synergistic lethal effects
Clc1ccc(COC(Cn2ccnc2)c2ccc(Cl)cc2Cl)c(Cl)c1 (centres unmarked) [miconazole]	synergistic lethal effects
